SMILES strings stand for the structures.

This data set is described as follows: Human HepG2 cell viability assay in 384 well format. Format: toxicity, cell-based. More on the design: dose 125 nL, time 70.5 hour; concentration not given beside the values. Conditions: HepG2 cells, read-out: Inhibition.
In the case of `OCCN(Cc1nc(-c2ccc3c(c2)OCO3)no1)Cc1cccs1`, the cytotoxicity at 70.5 h was -16.8%.

On to `CCc1nc(Cn2nc(C3CCNCC3)n(-c3ccccc3)c2=O)cs1`, for which the cytotoxicity at 70.5 h was -5.68%.

Turning to `Cc1nn(C)c2nc(NC(C)c3n[nH]c(=O)[nH]3)sc12` (configuration not stated), the cytotoxicity at 70.5 h was -10.8%.

As to `Cc1ccc(OC2(C(=O)O)CCN(C(=O)CCc3ccco3)CC2)cn1`, the cytotoxicity at 70.5 h is -0.99%.

For `CC(C)N1CC2(CCCN(c3ccnc4ccccc34)C2)CCC1=O` (configuration not stated), the cytotoxicity at 70.5 h was -0.494%.

Consider `CCN(CC)CCc1nc2c([nH]1)CC(c1ccc(Cl)cc1)CNC2=O` (configuration not stated), for which the cytotoxicity at 70.5 h was -3.81%.

For the compound `CC(C)c1nnc(CN2CCCC3(CC2)CN(C)C(=O)O3)o1` (configuration not stated), the cytotoxicity at 70.5 h is -3.73%.

In the case of `Cc1nc(N2CCC3(CCCN(CC4CC4)C3=O)C2)c2sccc2n1` (configuration not stated), the cytotoxicity at 70.5 h came to 0.2%.

Consider `Cc1cc(C)nc(CN(C)C(=O)c2cccc(CCC(C)(C)O)c2)c1`, for which the cytotoxicity at 70.5 h is -4.1%.

`O=C(CCNCc1cc(O)c2cc(F)ccc2n1)N1CCCC1`: the cytotoxicity at 70.5 h is -8.32%.

Consider `CN(C)C(C(=O)NC1(CO)CCCC1)c1ccc(F)cc1` (configuration not stated), for which the cytotoxicity at 70.5 h turned out to be 6.65%.

Take `CCCOc1ccccc1CCCNc1ncnc2oc(C)nc12`: the cytotoxicity at 70.5 h was -7.16%.

For the compound `CCCNC(=O)N1CCc2ccc(S(=O)(=O)N3CCCC3)cc2C1`, the cytotoxicity at 70.5 h is -10.1%.

As for `CNc1nc2c(c(C(=O)N3CCCC3)n1)CN(C(=O)CCSC)CC2`, the cytotoxicity at 70.5 h was -1.55%.

As for `CSCc1noc(-c2ccc(C)c(N3CCNC3=O)c2)n1`, the cytotoxicity at 70.5 h is -9.43%.

Take `Cn1cnnc1C1CCCN(Cc2nc(Cc3ccccc3)no2)C1` (configuration not stated): the cytotoxicity at 70.5 h was 13%.

In the case of `CN(C)C(=O)c1nc(CN2CC(c3ccccc3)CC2=O)no1` (configuration not stated), the cytotoxicity at 70.5 h is 10.4%.

On to `Cc1cc(CC(C)NC2CCN(CC(C)C)CC2)[nH]n1` (configuration not stated), for which the cytotoxicity at 70.5 h is -10.6%.

In the case of `N[C@@H]1CC[C@H](C(=O)NCCn2cc(Cl)cn2)C1`, the cytotoxicity at 70.5 h turned out to be 3.97%.

Take `COc1cccc2c1OCC(C(=O)NCc1ncc3c(n1)CCC3)C2` (configuration not stated): the cytotoxicity at 70.5 h was -9.1%.

For `CCc1nnc(CN(CC)C(=O)C2CC(=O)N(Cc3cccnc3)C2)o1` (configuration not stated), the cytotoxicity at 70.5 h is -11.4%.

In the case of `COc1ccc(NC2(C(=O)N3CCCn4cncc4C3)CCCC2)cc1`, the cytotoxicity at 70.5 h was -13%.

For the compound `CN(C)CCO[C@H]1C[C@@H](O)C12CCN(c1nccc3ccccc13)CC2`, the cytotoxicity at 70.5 h was -10.3%.

In the case of `Cc1nn(C)cc1-c1ccnc(NCCN)n1`, the cytotoxicity at 70.5 h was -8.28%.

For the compound `Cc1nc[nH]c1CN1CCN(C(=O)C2(C)CC2)[C@H]2CS(=O)(=O)C[C@H]21`, the cytotoxicity at 70.5 h was -11.5%.

As to `Cc1ccc(F)c(C(=O)N2C[C@@H](C(=O)O)[C@H](c3ccncc3)C2)c1Cl`, the cytotoxicity at 70.5 h is -8.75%.

For `COc1cccc(-c2noc(-c3ccc(NCC(C)O)nc3)n2)c1OC` (configuration not stated), the cytotoxicity at 70.5 h is -0.152%.

Take `O=C(O)COc1ccc(Cl)cc1CN1CCC2(CCNCC2)CC1`: the cytotoxicity at 70.5 h is -11.2%.

For the compound `COc1ncccc1-c1nc(-c2ccccn2)nn1C1CCS(=O)(=O)C1` (configuration not stated), the cytotoxicity at 70.5 h is -7.2%.

Regarding `Cc1nccnc1-n1c(COCC(=O)O)nc2c(C)cccc21`, the cytotoxicity at 70.5 h was -1.07%.

Take `COCc1noc(CN2C[C@H](NS(C)(=O)=O)[C@@H](C3CC3)C2)n1`: the cytotoxicity at 70.5 h was -11%.

Take `Cc1nc(C)c(C(=O)N2CCCC(C(=O)c3nccn3C)C2)s1` (configuration not stated): the cytotoxicity at 70.5 h was -2.4%.

Take `COCCC1CN(Cc2cn(CCC(N)=O)c3ccccc23)CCO1` (configuration not stated): the cytotoxicity at 70.5 h was -5.24%.

For `CN1CC(c2ccccc2)CC12CCN(C(=O)c1ccc(Cl)cc1)CC2` (configuration not stated), the cytotoxicity at 70.5 h was 7.42%.

For the compound `CN1CC2(CCN(c3ncnc4c3CCNC4)CC2)OC1=O`, the cytotoxicity at 70.5 h was -9.3%.

Turning to `CCC(C)N(Cc1ccncc1)Cc1ccc(-n2cccn2)cc1` (configuration not stated), the cytotoxicity at 70.5 h was -5.94%.

For `Cc1cc(C(=O)NC2CCCc3c2cnn3-c2cccc(C)c2C)[nH]n1` (configuration not stated), the cytotoxicity at 70.5 h was -3.11%.

Take `CCn1c(N)nc2cc(C(=O)N(C)Cc3cc(C(C)(C)C)n[nH]3)cnc21`: the cytotoxicity at 70.5 h was -5.41%.

In the case of `CCN(CC)S(=O)(=O)N1CCCC(c2nccn2Cc2ccncc2)C1` (configuration not stated), the cytotoxicity at 70.5 h came out at 8.67%.

As to `Cc1cc2c(=O)n(CCSc3ncn[nH]3)cnc2s1`, the cytotoxicity at 70.5 h was -7.44%.

Consider `COc1ccccc1S(=O)(=O)N1CCC2(CC1)OCCCC2O` (configuration not stated), for which the cytotoxicity at 70.5 h is -6.84%.

Regarding `COC(=O)N1CCN(c2ncnc3nc(C)cc(C)c23)CC1`, the cytotoxicity at 70.5 h is -4.12%.

Turning to `CCN1CCC(N2CCN(C)C3(CCC(=O)N(CCOC)CC3)C2)CC1` (configuration not stated), the cytotoxicity at 70.5 h is -9.42%.

With `CN(Cc1cccc(C(=O)Nc2ccnn2C)c1)CC1(C)COC1`, the cytotoxicity at 70.5 h came out at 0.785%.

Take `CN1CCC(Cc2noc(-c3cccc4c3OCC4)n2)CC1`: the cytotoxicity at 70.5 h was -8.69%.

Turning to `Cc1[nH]c2c(C)ccc(C)c2c1CC(=O)NCCNc1cccnc1`, the cytotoxicity at 70.5 h came to 27%.

As to `CNc1nc(C)cc(NC2CCCN(C3Cc4ccccc4C3)C2)n1` (configuration not stated), the cytotoxicity at 70.5 h came out at 14.9%.

For `Clc1cc(N2CCN(C3CCOCC3)CC2)nc2[nH]ccc12`, the cytotoxicity at 70.5 h was -0.399%.

For the compound `CC(C)c1cc(N2CCC(NS(C)(=O)=O)CC2)n2nccc2n1`, the cytotoxicity at 70.5 h was -2.38%.

Regarding `Cc1cc(N2CCC3(CCC(=O)N(CCCO)C3)CC2)nc(N(C)C)n1`, the cytotoxicity at 70.5 h was -2.5%.

As for `COCc1nc(CN2CC(C)(c3ccccc3)CCC2=O)no1` (configuration not stated), the cytotoxicity at 70.5 h was -6.99%.

In the case of `COc1ccc(C(C)C)cc1C1CC(=O)NCc2nc(N(C)C)sc21` (configuration not stated), the cytotoxicity at 70.5 h worked out at 13.4%.

For the compound `CCN(C)C[C@@H]1CN(Cc2cccc(O)c2)C[C@@H]1CO`, the cytotoxicity at 70.5 h was -11.8%.

For the compound `c1cc2c(cc1CN1CCC(Cc3noc(C4CC4)n3)CC1)OCCO2`, the cytotoxicity at 70.5 h amounted to 20.2%.

`Fc1cnccc1CN1CCC2(CCNCC2)C1`: the cytotoxicity at 70.5 h was -10.4%.

Turning to `Cc1cnn(CC(=O)N2CCC3(CCC(=O)N(CCCO)C3)CC2)c1`, the cytotoxicity at 70.5 h was 0.675%.

Take `CC(C)=CCN1C[C@H]2CC[C@@H]1CN(C(=O)c1ccc3[nH]cnc3c1)C2`: the cytotoxicity at 70.5 h amounted to 3.14%.

In the case of `CN(C)CCCN(C)c1nccc(N2CCN[C@H]3CS(=O)(=O)C[C@H]32)n1`, the cytotoxicity at 70.5 h is 23.2%.

For the compound `CCOC(=O)CC1CCCCN1C(=O)c1cc(C)on1` (configuration not stated), the cytotoxicity at 70.5 h was -8.65%.

On to `CCc1nc(C)c(C(=O)N[C@@H]2c3ccccc3C[C@@H]2O)o1`, for which the cytotoxicity at 70.5 h is 16%.

For `Nc1nc2c(c(N3CCCC(CN4CCCC4=O)C3)n1)CCNCC2` (configuration not stated), the cytotoxicity at 70.5 h was -5.58%.

Consider `CC(C)(O)CCc1cccc(C(=O)N[C@H](C(N)=O)c2ccccc2)c1`, for which the cytotoxicity at 70.5 h is -11%.

Take `CC(=O)N[C@@H]1CN(Cc2ccc(F)cc2F)C[C@H]1c1ccc(C)o1`: the cytotoxicity at 70.5 h was 11.7%.

Regarding `O=c1cc(-c2cccnc2)nc(-c2ccc(CN3CC[C@@H](O)C3)cc2)[nH]1`, the cytotoxicity at 70.5 h turned out to be 12.1%.

`CCS(=O)(=O)c1ncc(CN(C)Cc2ccccc2OC)n1CCOC`: the cytotoxicity at 70.5 h was -5.74%.

Take `CN(CCNc1ncc2c(n1)CCN2c1ccccc1)S(C)(=O)=O`: the cytotoxicity at 70.5 h is -9.7%.

Consider `Cc1cnccc1N1CCCN(Cc2ccc(-c3cc[nH]n3)o2)CC1`, for which the cytotoxicity at 70.5 h is -5.27%.

Take `CC(C)N1CCC2(CCCN(Cc3ccc(F)cc3)C2=O)C1` (configuration not stated): the cytotoxicity at 70.5 h amounted to 27.4%.

As for `Cc1cc(CC(C)NC(=O)COc2ccc(F)cc2F)[nH]n1` (configuration not stated), the cytotoxicity at 70.5 h is -5.3%.

As for `O=C(O)c1cc(-c2cn[nH]c2)cc(S(=O)(=O)N2CCSCC2)c1`, the cytotoxicity at 70.5 h is -4.23%.

Consider `Cc1nc(C)c(C)c(NCCSc2ccccn2)n1`, for which the cytotoxicity at 70.5 h was -6.54%.

As for `CCCN1CCN(Cc2cc3cc(OCC)ccc3[nH]c2=O)CC1`, the cytotoxicity at 70.5 h was -6.17%.

Turning to `Cc1ccc(-c2ccnc(N3CCC4(CC3)CNC(=O)O4)n2)c(C)n1`, the cytotoxicity at 70.5 h is -9.43%.

Regarding `Cc1nc(N2C[C@@H](CN3CCCCC3)[C@@H](CO)C2)c2sccc2n1`, the cytotoxicity at 70.5 h turned out to be 8.31%.

For the compound `CS(=O)(=O)N[C@H]1CN(CCOCc2ccccc2)C[C@@H]1C1CC1`, the cytotoxicity at 70.5 h was -2.16%.

For the compound `O=C(c1cc[nH]n1)N1CCc2ccc(S(=O)(=O)N3CCOCC3)cc2C1`, the cytotoxicity at 70.5 h worked out at 3.21%.

In the case of `Cc1cc(C)c2c(N(C)CC3CCN(CC(C)C)C3)ncnc2n1` (configuration not stated), the cytotoxicity at 70.5 h is -2.13%.

Take `O=C(Nc1ccccc1Cl)N1CCN(CC2CC2)[C@@H]2CS(=O)(=O)C[C@@H]21`: the cytotoxicity at 70.5 h came out at 16.8%.

Turning to `CCC1CN(C(=O)c2ccccc2N2CCCC2)CCN1C(C)C` (configuration not stated), the cytotoxicity at 70.5 h is -4.31%.

On to `Cc1cc(N2CCN(Cc3ccc(-c4cc[nH]n4)o3)CC2)cc(C)n1`, for which the cytotoxicity at 70.5 h came out at 19.1%.

`COc1ccc(F)cc1C(C(=O)O)N1CCSCC1` (configuration not stated): the cytotoxicity at 70.5 h was -7.69%.

Turning to `Cc1ccc([C@@H]2CN(S(=O)(=O)C(C)C)C[C@H]2N(C)C)cc1`, the cytotoxicity at 70.5 h was -12.5%.

For the compound `Cc1cccc(CN2CCN(Cc3ccccc3)CC(O)C2)n1` (configuration not stated), the cytotoxicity at 70.5 h is -12.1%.

On to `Cc1cnc(N2CCCC3(CCCN(C)C3)C2)nc1` (configuration not stated), for which the cytotoxicity at 70.5 h was -0.385%.

With `Cc1cc(C)c2nc(CN3CCCC(c4cc[nH]n4)C3)cc(O)c2c1` (configuration not stated), the cytotoxicity at 70.5 h is -2.87%.

`Cc1[nH]c(=O)[nH]c(=O)c1CN1CCCC(CCc2ccccc2)C1` (configuration not stated): the cytotoxicity at 70.5 h is -5.9%.

`O=C(c1cc(=O)[nH]c(=O)[nH]1)N1CCCCC1c1nc2cc(F)ccc2[nH]1` (configuration not stated): the cytotoxicity at 70.5 h is -6.77%.

Consider `CCn1ccnc1CN1CCCC(CO)(Cc2cccc(Cl)c2)C1` (configuration not stated), for which the cytotoxicity at 70.5 h was -1.73%.

`CCC1CN(C(=O)c2ccc(=O)[nH]c2)CCC(=O)N1Cc1ccccc1` (configuration not stated): the cytotoxicity at 70.5 h was -2.4%.

For `N#CCCSc1sc2c(O)cc(O)nc2c1C#N`, the cytotoxicity at 70.5 h turned out to be 13.6%.

As for `Cc1cc(C)n(NC(=O)c2ccccc2F)c(=O)c1`, the cytotoxicity at 70.5 h was 15.6%.

Consider `Cc1cc(C)n(NC(=O)c2ccc(Cl)cc2Cl)c(=O)c1`, for which the cytotoxicity at 70.5 h was -16.4%.

With `CCC(NC(=O)c1nn(C)cc1C(=O)O)c1ccc(C)cc1C` (configuration not stated), the cytotoxicity at 70.5 h was -6.11%.

In the case of `CCCSc1ncc(Cl)c(C(=O)NC(CCSC)C(=O)O)n1` (configuration not stated), the cytotoxicity at 70.5 h was -7.81%.

Regarding `Cc1cc(NCC2CCCO2)cc(=O)n1C` (configuration not stated), the cytotoxicity at 70.5 h is -9.63%.

`N#CCCn1nc(C(F)(F)F)c2c1CCC2`: the cytotoxicity at 70.5 h is -2.44%.

As for `NCCCn1nc(C(F)(F)F)c2c1CCC2`, the cytotoxicity at 70.5 h was -7.21%.

These data come from ChEMBL document CHEMBL3507680, “University of Dundee, Gates Library screen for HepG2 cell viability”.
